From patent publication EP3325012B1, “CINEOLE-CONTAINING COMPOSITION FOR TREATING NOSE POLYPS” (Maria Clementine Martin Klosterfrau Vertriebsgesellschaft …, priority 2015, dated 2017)

Columns and labels:
aktivem beta-Catenin = test: Western blot of active beta-catenin in nasal polyp tissue samples; assay type: cell-based, Mensch; details: 100 µM, 24 Stunden incubation, versus medium controls (Figur 3)
Description: Proben von Nasenpolypen wurden in PBS gewaschen und vorsichtig homogenisiert. Es wurden Zellextrakte hergestellt und unter Verwendung von Lysepuffer 16 ("Human pluripotent stem cell array" (R&D Systems)) solubilisiert. Die Proteinkonzentrationen wurden bestimmt.
Lysate von Geweben wurden durch Erhitzen über einen Zeitraum von 5 Minuten in einfachem SDS-Probenpuffer (Carl Roth GmbH, Karlsruhe, Deutschland) denaturiert. Die Proteinkonzentrationen wurden mittels des Bradford-Tests bestimmt und jeweils 30 µg Gesamtprotein wurden zur SDS-Polyacrylamid-Gel Elektrophorese eingesetzt (Mini-Protean TGX®, Any kD, BioRad, Hercules, CA, USA) und anschließend auf Nitrozellulosemembranen übertragen. Die Übertragung der Proteine wurde mittels Ponceau-Färbung kontrolliert. […]
Um die Beladungsmenge jeder Spur zu bestimmen, wurden die Nitrozellulosemembranen über Nacht bei 4 °C mit einem primären Antikörper der GAPDH (Cell Signaling Technology Inc., Massachusetts, Katalognummer: 14C10) in einer Verdünnung von 1 : 1.000 inkubiert. […] Die Pixeldichten wurden quantifiziert und mittels Fusion FX7® unter Einsatz von Bio-1D Software® dokumentiert. […]

[1] = tested on: allen untersuchten Zellspezies; test: Vitality/proliferation, summary over all cell species investigated; assay type: cell-based; details: 10mM
Description: Erste Vorversuche zum Einfluss von Cineol auf die Progression von Polyposis nasi et sinuum wurden durchgeführt. Hierzu wurden zunächst Einzelzellsuspensionen hergestellt und diese wurden in der Zellkultur über einen Zeitraum von 288 Stunden mit Standardmedium und mit 1mM Cineol inkubiert.
Es wurden weiterführende Untersuchungen durchgeführt zur Analyse des Einflusses von Cineol auf die Vitalität und Proliferation verschiedener permanenter Zelllinien. Hierzu wurden einerseits die zwei HNSCC-Zelllinien und des Weiteren eine Fibroblastenzelllinie verwendet. Diese wurden über einen Zeitraum von 250 Stunden mit verschiedenen Cineol-Konzentrationen kultiviert (1 mM bis 10 mM) und die Vitalität der Zellen wurde jeweils mittels eines MTT-Assays untersucht.
Hierbei zeigte sich ein ähnliches Bild wie in den vorhergegangenen Untersuchungen zum Einfluss von Cineol auf die Vitalität von Polyposis nasi et sinuum-Einzelzellsupensionen, wobei sich jedoch die permanenten Zelllinien erst zu geringfügig späteren Zeitpunkten und bei geringfügig höheren Cineol-Konzentrationen signifikant in ihrer Proliferation beeinflussen ließen. […]

CC12CCC(CC1)C(C)(C)O2 [1,8-Cineol, 1,3,3-Trimethyl-2-oxabicyclo[2.2.2]octan]
Expressionslevel von aktivem beta-Catenin (aktivem beta-Catenin): verschwanden aktive beta-Catenin-Proteine fast vollständig | zytotoxische Wirkung [1]: deutlich zytotoxischen Wirkung
